Source: patent publication US20250120975A1, “INTEGRIN INHIBITORS FOR TREATMENT OF PRIMARY SCLEROSING CHOLANGITIS” (Pliant Therapeutics, Inc., priority 2023, published 2025)

Assays:
[1] = Plasma and liver concentrations in BALB/c.Mdr2−/− mice at harvest; type: in vivo, mouse
Method: (§1) (S)-4-((2-methoxyethyl)(4-(5,6,7,8-tetrahydro-1,8-naphthyridin-2-yl)butyl)amino)-2-(quinazolin-4-ylamino)butanoic acid (or PBS) was dosed once daily orally at 100 mg/kg, 300 mg/kg or 1000 mg/kg (see Table B-2) starting at 6 weeks after birth of the subject and continuing for 6 weeks. All animals were euthanized and necropsied at the end of week 12.
Plasma samples were assayed by a qualified non-GLP bioanalytical method. Liver samples were homogenized in five volumes of ice-cold water. For plasma and liver homogenate, 20 μL of sample was extracted with 100 μL methanol: acetonitrile (5:95 v: v) containing 10 ng/mL internal standard. The solution was centrifuged at 4000 RPM for 5 minutes and 70 μL of supernatant transferred to injection plate containing 70 μl water. An aliquot of 10 μL was injected to a Sciex 4000 system. Concentrations of (S)-4-((2-methoxyethyl)(4-(5,6,7,8-tetrahydro-1,8-naphthyridin-2-yl)butyl)amino)-2-(quinazolin-4-ylamino)butanoic acid in mouse plasma and liver homogenate were determined by using Analyst 1.6 software (AB Sciex, Foster City, CA). […] Using this bioanalytical method and four-times dilution of the samples, (S)-4-((2-methoxyethyl)(4-(5,6,7,8-tetrahydro-1,8-naphthyridin-2-yl)butyl)amino)-2-(quinazolin-4-ylamino)butanoic acid can be quantified in the range of 0.5-8000 ng/mL in plasma and liver homogenate.

[2] = system: subjects with PSC and concomitant IBD; assay: Phase 2a INTEGRIS-PSC: IBD symptoms (partial Mayo Score); type: in vivo, human
From the text: Questionnaires to assess PROs will be administered at Baseline, Weeks 4 and 12(Parts 1, 2, and 3) and at Week 24 (Part 3 only), and will include the Chronic Liver Disease Questionnaire (CLDQ), the Itch Numeric Rating Scale (NRS), and the Partial Mayo Score (PMS), when available for use. See A. N. Naegeli, et al. (2015) International Journal of Dermatology 54 (6): 715-722 and Z. M. Younossi, et al. (1999) Gut 45:295-300, the entire contents of which are hereby incorporated by reference in their entirety.

[3] = system: subjects with PSC and suspected liver fibrosis; assay: Phase 2a INTEGRIS-PSC: PRO-C3 (collagen synthesis); type: in vivo, human
From the text: In Parts 1 and 2, plasma, serum, and urine biomarker samples were obtained at predetermined times as indicated in the Schedule of Events (see Table B-4). In Part 3, plasma and serum biomarker samples were obtained at predetermined times as indicated in the Schedule of Events (see Table B-5 and Table B-6). These samples were used to measure specific proteins, nucleotides and/or metabolites that were elevated in subjects with fibrosis, and/or pharmacodynamic markers that could change with inhibition of integrins αVβ6 and αVβ1. The samples were also used to perform exploratory investigations using metabolomic or proteomic methods for use in future studies in subjects with fibrotic diseases.
Absolute and relative changes from Baseline in liver fibrosis biomarkers (including PRO-C3 and ELF) and in ALP are presented in numerical and graphical forms by treatment and dose utilizing data from the timepoints specified in the Schedule of Events. Changes from Baseline to Week 12(Parts 1 and 2) and Week 24 (Part 3) in magnetic resonance (MR)-based liver imaging are also evaluated, as well as changes in PROs.

[4] = system: BALB/c.Mdr2−/− mouse model of biliary fibrosis; assay: Connective tissue (picrosirius red) histology; type: in vivo; conditions: 300 and 1000 mg/kg, 6 weeks
From the text: The tissue source is BALBc.Mdr2-/−male mice that were 6 weeks old. The Mdr2(abcb4)−/− mouse model of sclerosing cholangitis has been previously described and is a model of spontaneously progressive hepatic fibrosis in mice with deletion of the biliary phospholipid flippase on fibrosis-susceptible background (Mdr2(abcb4)^−/−. BALB/c mouse). See N. Ikenaga, et al. (2015) Am J Pathol. 185 (2): 325-334, the entire contents of which are hereby incorporated by reference in their entirety.
as §1
Connective tissue stains were carried out to morphometrically assess fibrosis, through analysis of 10 high power fields per animal.

[5] = system: subjects with PSC and suspected liver fibrosis; assay: Phase 2a INTEGRIS-PSC: transient elastography (FibroScan) liver stiffness; type: in vivo, human; conditions: 320 mg, Week 24, compared to an increase on placebo, Example B-5
From the text: Transient elastography (TE) utilizes an ultrasound shear wave to assess the elasticity of the liver, that is, how “stiff” the liver tissue is. Fibrosis causes stiffening or hardening of tissue, and TE can be used to diagnose fibrosis and determine the degree of fibrosis. The FibroScan® device (FibroScan® is a registered trademark of ECHOSENS, Paris, France, for medical equipment and software) can be used for TE. (Kemp W, Roberts S., Aust Fam Physician. 2013 July; 42(7):468-71; and Ozturk A. et al., Abdom Radiol (NY), 2022 September; 47 (9): 3037-3050; each of which are hereby incorporated by reference in their entireties).
Each subject underwent an ultrasound-based transient elastography (FibroScan®) assessment at the screening and Week 12 study visits (Parts 1 and 2) and will undergo an ultrasound-based transient elastography (FibroScan®) assessment at the screening, at Week 12 study visits, and at Week 24 (Part 3 only). FibroScan® is a noninvasive technique that uses ultrasound-based transient elastography (TE) to assess liver stiffness measurement (LSM) and determine likelihood of clinically meaningful liver fibrosis.
The LSM, as assessed by TE, is expressed in kilopascals (kPa). Larger values (normal range approximately between 2 and 7 kPa) indicate a greater likelihood of clinically meaningful liver fibrosis. See H. Ehlken, et al. (2016) PloS ONE 11 (10): e0164224 and C. […]

[6] = system: PCLivS from human liver tissue with biliary fibrosis (PSC, PBC); assay: Fibrotic gene expression (NanoString) in precision cut liver slices; type: cell-based
[7] = ≥1 μM, PCLivS from 10 livers with biliary fibrosis (6 PSC, 4 PBC), 2 days

Q: What does the source list for `COCCN(CCCCc1ccc2c(n1)NCCC2)CC[C@H](Nc1ncnc2ccccc12)C(=O)O` [Bexotegrast, (S)-4-((2-methoxyethyl)(4-(5,6,7,8-tetrahydro-1,8-naphthyridin-2-yl)butyl)amino)-2-(quinazolin-4-ylamino)butanoic acid]?
A: plasma and liver concentrations, comparison of dose groups ([1]; 100, 300 and 1000 mg/kg PO/QD, 6 weeks): higher levels in the 1000 mg/kg group; Kp at 6 weeks ([1]; mouse, liver (relative to plasma), BALB/c.Mdr2−/− mice, after 6 weeks of PO/QD dosing, at harvest, read-out: Liver levels (ng/g) relative to the levels seen in the plasma (ng/mL)): 3 to 5; IBD symptoms in patients with IBD ([2]; 40, 80, 160 mg, 12 weeks, Example B-3): no clinically-relevant changes; IBD symptoms as measured by partial Mayo Score ([2]; patients with concomitant IBD, Example B-4): no change; PRO-C3, difference to placebo ([3]; 40 mg (p<0.01) and 160 mg (p<0.05), Week 12, Example B-3): statistically significant differences from placebo; PRO-C3 levels relative to placebo ([3]; 320 mg, Week 12, Example B-4): reduction; collagen synthesis (PRO-C3) relative to placebo ([3]; all doses (40, 80, 160 mg), Week 12, Example B-3): reduced; PRO-C3 relative to the placebo ([3]; all doses, statistical significance at Week 12 for 40 mg, 160 mg and pooled groups, Example B-4): reduced; fibrosis by picrosirius red histological staining [4]: significant reductions; median liver stiffness by transient elastography (TE) [5]: numerical reduction; median liver stiffness by transient elastography (TE) ([5]; listed as bexotegrast): decrease; inhibition of the TGF-β-driven COLIA2 expression ([6]; relative to inhibition with high dose ALK5 inhibitor, PCLivS from 10 livers): ≤ 43%; significant reduction in expression of COLIA2 [6, 7]: 19%; significant reduction in expression of TGF-81 [6, 7]: 24%; trend down in overall expression of COL3A1 [6, 7]: 15%
